Measurements: paper PMC4929566, “The metabolome of [2-^14C](−)-epicatechin in humans: implications for the assessment of efficacy, safety, and mechanisms of action of polyphenolic bioactives” (Scientific Reports, 2016)
Where “and” joins values, the source holds several entries; their conditions need not be identical. Equal values may be shown once.

Assays:
Type in all cases: in vivo, humans
Conditions in all cases: human
[1] = Total [2-14C](−)-epicatechin-derived radioactivity in whole blood and plasma after oral intake
Method: (§1) The study was a single-center, open-label, and non-randomized study with two distinct elements: a run-in phase to establish a more defined dietary background of dietary flavanols and procyanidins and the subsequent ^14C-EC ADME study (Fig. 1B). Participants (n = 12) were enrolled in the run-in phase (day –17 to day –4) and asked to supplement their daily diet for 14 days with a commercially available flavanol-containing cocoa-based drink (250 mg cocoa flavanols; 40 mg of EC). This was followed by a 4-day period (day –4 to 0) of a low-flavanol diet. One day (study day -1) prior to the initialization of the ^14C-EC ADME study, all eligible participants were accommodated under controlled conditions at a metabolic research facility (Covance Clinical Pharmacology Inc., Wisconsin) until completion of the study. Based on the compliance of the first part of the study, 8 participants were selected to participate in the ^14C-EC ADME study. During the ^14C-EC ADME study (Fig. 1B.), volunteers received a low-flavanol, standardized high-fiber diet, and were encouraged to maintain an adequate level of hydration (water ad libitum). Volunteers were asked to fast for 8 h before the initiation of the study and for at least 4 h after the intake of the ^14C-EC test drink (water ad libitum). Venous blood samples were taken using Vacutainer collection tubes, containing potassium EDTA at 0 h (just prior to ^14C-EC ingestion), and at 0.25, 0.5, 1, 1.5, 2, 2.5, 3, 4, 6, 8, 10, 12, 16, 24, 36, and 48 h after test drink consumption. Plasma was obtained by whole blood centrifugation at 2000 × g for 15 min at 5 °C, separated into aliquots and stored at −80 °C until analysis. All urine and feces from the time just prior to the consumption of the test drink were collected at different time intervals for radioactivity and metabolite profiling. Clinical parameters and laboratory evaluations of participants were assessed at screening, on study day –1, and after completing the study, as detailed in Supplementary Methods.
(§2) The 50-mL drink consisted of an aqueous solution of ^14C-EC (specific activity 14.5 μCi μmol^−1) and delivered 60 mg (207 μmol) of EC and 300 μCi (660 × 10^6 dpm) of radioactivity. The drink was prepared one day before consumption to verify correctness of composition and stability. Volunteers received the ^14C-EC test drink (50 mL), followed by 3 × 50 mL of water that was used to rinse the test drink container, and 40 mL of water. The radioactivity remaining in the test drink containers was measured, and the residual radioactivity recovered from each container was subtracted from the amount administered to the corresponding volunteer.
(§3) Radioactivity in aliquots of plasma and urine was measured by liquid scintillation counting. Blood and feces were dried and oxidized by combustion using a 307 Sample Oxidizer (Packard Instrument Company, Meriden, NH) before being analyzed by liquid scintillation counting.

[2] = Elimination and mass balance of radioactivity in urine and feces
Method: as §1, §2, §3

[3] = Metabolite profiling and quantification in urine (HPLC-MS2 with on-line radioactivity detector)
Method: as §1
Samples were processed as described previously[18] and analyzed by HPLC-MS^2 in conjunction with an on-line HPLC-radioactivity monitor as described in SI Materials and Methods. Identification of metabolites involved comparing the retention time with authentic standards and MS^2 fragmentation patterns (Supplementary Methods). Quantification of metabolites in urine was based on HPLC radioactivity peak area (limit of quantification: 10^3 dpm). Due to the low levels of radioactivity, quantification in plasma was based on targeted HPLC-MS^2 using standard curves obtained with authentic standards (Supplementary Methods).
HPLC-MS identifications of radiolabeled [2-14C](−)-epicatechin metabolites in urine Urine was analyzed with radioactivity and mass spectrometry (MS) detection using a 250 mm x 4.6 mm i.d. 5 µm Luna Phenyl-Hexyl column (Phenomenex, Macclesfield, UK) […]
formic acid. Metabolite identification was performed by 1) co-chromatography of metabolites with reference compounds and a comparison of their MS fragmentation patterns 2, 2) by comparing m/z fragmentation patterns with earlier in-house observed […]
patterns to databases of metabolites reported in earlier polyphenol feeding studies5-7.
Supplementary Table S2, which also provides information on the MSI MI (Metabolite Standards Initiative – Metabolites Identification) level, a confidence level for identification where level 1 stands for fully elucidated (i.e., by comparison with a standard) and level 2 for a well characterized, but not yet fully structurally elucidated 8

[4] = Adverse events and clinical/laboratory evaluation in the 14C-EC ADME study
Method: as §1, with “Methods. […]” for “Methods.”

[5] = all volunteers, post-consumption

Time by which radioactivity in plasma fell below the limit of quantitation [1, 5]: ≤ 72 h
Time by which radioactivity in whole blood fell below the limit of quantitation [1, 5]: ≤ 36 h
Time after consumption at which radioactivity was detected in the circulation ([1]; oral 60 mg 14C-EC): 15 min
Total radioactivity in the circulatory system at Cmax, of the amount of 14C-EC ingested ([1]; calculated from whole blood concentration and blood volume): < 2%
Accumulated radioactivity voided in feces, of ingested 14C-EC ([2]; oral 60 mg 14C-EC): 12 ± 3%
Radioactivity in urine and feces combined, of intake ([2]; oral 60 mg 14C-EC): 95 ± 1%
Radioactivity not recovered in the collected samples ([2]; oral 60 mg 14C-EC): 5 ± 1%
Accumulated radioactivity eliminated in urine, of amount ingested ([2]; oral 60 mg 14C-EC, liquid scintillation counting, 0–48 h): 82 ± 5%
Ingested EC absorbed ([2]; oral 60 mg, n=8): 82 ± 5%
Ingested 14C-EC absorbed via the colon / lower intestine ([3]; from urinary RFM excretion): ≈ 70% and 70%
Ingested 14C-EC absorbed from the small intestine ([3]; from urinary SREM excretion): 20%
Compound: Oc1cc(O)c2c(c1)O[C@H](c1ccc(O)c(O)c1)[C@H](O)C2 [^14C-EC, [2-^14C](−)-epicatechin]
Association of whole blood radioactivity with plasma vs cellular components [1]: associated, almost exclusively, with plasma
Severity of reported adverse events [4]: all reported adverse events were mild in severity
Number of adverse events reported ([4]; reported by 3 different participants, none related to study treatment): 6
Adverse events related to the study treatment ([4]; single oral 60 mg, 300 μCi): No adverse events related to the study treatment were recorded
Clinical changes in laboratory evaluations, physical examinations and 12-lead electrocardiograms ([4]; single oral 60 mg, 300 μCi): no significant clinical changes
